Tests used:
MV4-11 cells = assay: AML cell proliferation inhibitory activity (CellTiter-Glo); assay type: cell-based; conditions: Homo sapiens, 72 hours
Summary of the method: (§1)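 RS4;11 and MV4-11 cells in RPMI-1640 with 10% FBS, seeded 24 h before treatment, then exposed 72 h to 12 three-fold dilutions (0.3 nM–50 μM final). Viability by CellTiter-Glo luminescence relative to solvent control; GI50 from triplicate experiments.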

MCF-7 cells = assay: Breast cancer cell line proliferation inhibitory activity (CellTiter-Glo 2.0); assay type: cell-based; conditions: Homo sapiens, MCF7, 120 hours
Summary of the method: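 MCF-7 cells exposed to a 12-point, 3-fold dilution series (final 0.00005–10 μM) for 120 h at 37 °C. Viability read by CellTiter-Glo 2.0 luminescence, expressed as percent of vehicle-treated cells. GI50 (nM) derived from the curves.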

CDK4-cyclinD1 = CDK4-cyclinD1 (Homo sapiens, UniProt P11802); assay: CDK4 enzyme inhibitory ability (Reaction Biology); assay type: biochemical; design: purchased Reaction Biology (USA), contract assay; conditions: measured in Reaction Biology (USA)
Sequence of CDK4-cyclinD1 (P11802 whole entry): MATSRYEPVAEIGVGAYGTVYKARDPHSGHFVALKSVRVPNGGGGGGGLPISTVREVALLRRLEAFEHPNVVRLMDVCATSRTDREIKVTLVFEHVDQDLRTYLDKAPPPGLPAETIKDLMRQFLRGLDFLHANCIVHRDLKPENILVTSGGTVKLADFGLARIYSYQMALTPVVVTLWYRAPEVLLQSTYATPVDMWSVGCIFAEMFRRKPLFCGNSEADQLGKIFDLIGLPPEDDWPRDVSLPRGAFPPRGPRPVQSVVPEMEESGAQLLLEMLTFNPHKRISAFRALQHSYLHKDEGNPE
Sequence of CDK4-cyclinD1 (P24385 whole entry partner): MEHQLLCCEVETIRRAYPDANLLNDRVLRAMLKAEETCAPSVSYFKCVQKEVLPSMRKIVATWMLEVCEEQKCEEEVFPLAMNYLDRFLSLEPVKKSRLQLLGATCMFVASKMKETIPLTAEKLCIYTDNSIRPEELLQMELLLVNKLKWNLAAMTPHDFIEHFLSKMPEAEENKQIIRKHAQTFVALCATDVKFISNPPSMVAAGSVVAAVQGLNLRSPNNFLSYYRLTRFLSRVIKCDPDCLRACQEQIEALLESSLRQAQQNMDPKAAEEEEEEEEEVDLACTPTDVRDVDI
Method: (§2) In order to evaluate the CDK4 and CDK6 enzyme inhibitory activities of the example compounds according to the present invention, IC5O (nM) was measured for the CDK4 cyclin D1 and CDK6 cyclin D1 enzymes in Reaction Biology (USA), and the results were shown in Table 3 below.

human GST-HPK1 (1-346) = molecular target: T1, human GST-HPK1 (1-346) (Homo sapiens, UniProt Q92918); assay: HPK1 enzyme inhibitory ability (ADP-Glo kinase assay); assay type: biochemical; conditions: human GST-HPK1 3 ng, ATP 3 uM, 25° C. 2 hours
T1 construct: purified human GST-HPK1 (1-346, Signalchem) enzyme; purchased Signalchem
T1 sequence (Q92918 1-346): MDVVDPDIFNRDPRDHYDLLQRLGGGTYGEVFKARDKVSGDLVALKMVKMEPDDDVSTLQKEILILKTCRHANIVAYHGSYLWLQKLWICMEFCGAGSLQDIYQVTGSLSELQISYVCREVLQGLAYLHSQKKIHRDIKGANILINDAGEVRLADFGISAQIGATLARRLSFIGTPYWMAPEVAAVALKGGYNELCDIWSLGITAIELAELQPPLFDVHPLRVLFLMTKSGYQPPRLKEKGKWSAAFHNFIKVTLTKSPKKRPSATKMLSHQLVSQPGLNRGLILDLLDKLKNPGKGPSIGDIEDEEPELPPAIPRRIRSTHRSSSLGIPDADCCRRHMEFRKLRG
Summary of the method: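 Human GST-HPK1(1-346), 3 ng, reacted with 3 uM ATP and specific substrate in 40 mM Tris-HCl pH 7.4, 20 mM MgCl2, 0.5 mg/mL BSA, 50 uM DTT for 2 h at 25° C. ADP-Glo luminescence read; IC50 (nM) relative to untreated solvent control.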

CDK6 cyclin D1 = molecular target: T2, CDK6 cyclin D1 (Homo sapiens, UniProt Q00534); assay: CDK6 enzyme inhibitory ability (Reaction Biology); assay type: biochemical; conditions: measured in Reaction Biology (USA)
T2 construct: purchased Reaction Biology (USA), contract assay
T2 sequence (Q00534 whole entry): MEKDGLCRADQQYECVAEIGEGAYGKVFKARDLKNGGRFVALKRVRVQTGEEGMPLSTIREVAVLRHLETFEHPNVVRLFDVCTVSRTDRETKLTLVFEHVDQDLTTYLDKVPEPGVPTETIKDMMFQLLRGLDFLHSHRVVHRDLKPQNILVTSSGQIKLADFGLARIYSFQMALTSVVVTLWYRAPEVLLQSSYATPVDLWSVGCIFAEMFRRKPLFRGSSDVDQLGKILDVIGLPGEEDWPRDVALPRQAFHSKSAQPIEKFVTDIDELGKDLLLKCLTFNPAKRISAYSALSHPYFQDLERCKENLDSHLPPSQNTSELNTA
T2 sequence (P24385 whole entry partner): as the sequence (P24385 whole entry partner) above
Method: as §2

human FLT3-ITD enzyme = molecular target: T3, human FLT3-ITD enzyme (Homo sapiens, UniProt P36888); assay: FLT3 enzyme inhibitory ability (ADP-Glo kinase assay); assay type: biochemical; conditions: human FLT3-ITD enzyme 10 ng, ATP 10 μM, 25° C. 1 hour
T3 sequence (P36888 1-993): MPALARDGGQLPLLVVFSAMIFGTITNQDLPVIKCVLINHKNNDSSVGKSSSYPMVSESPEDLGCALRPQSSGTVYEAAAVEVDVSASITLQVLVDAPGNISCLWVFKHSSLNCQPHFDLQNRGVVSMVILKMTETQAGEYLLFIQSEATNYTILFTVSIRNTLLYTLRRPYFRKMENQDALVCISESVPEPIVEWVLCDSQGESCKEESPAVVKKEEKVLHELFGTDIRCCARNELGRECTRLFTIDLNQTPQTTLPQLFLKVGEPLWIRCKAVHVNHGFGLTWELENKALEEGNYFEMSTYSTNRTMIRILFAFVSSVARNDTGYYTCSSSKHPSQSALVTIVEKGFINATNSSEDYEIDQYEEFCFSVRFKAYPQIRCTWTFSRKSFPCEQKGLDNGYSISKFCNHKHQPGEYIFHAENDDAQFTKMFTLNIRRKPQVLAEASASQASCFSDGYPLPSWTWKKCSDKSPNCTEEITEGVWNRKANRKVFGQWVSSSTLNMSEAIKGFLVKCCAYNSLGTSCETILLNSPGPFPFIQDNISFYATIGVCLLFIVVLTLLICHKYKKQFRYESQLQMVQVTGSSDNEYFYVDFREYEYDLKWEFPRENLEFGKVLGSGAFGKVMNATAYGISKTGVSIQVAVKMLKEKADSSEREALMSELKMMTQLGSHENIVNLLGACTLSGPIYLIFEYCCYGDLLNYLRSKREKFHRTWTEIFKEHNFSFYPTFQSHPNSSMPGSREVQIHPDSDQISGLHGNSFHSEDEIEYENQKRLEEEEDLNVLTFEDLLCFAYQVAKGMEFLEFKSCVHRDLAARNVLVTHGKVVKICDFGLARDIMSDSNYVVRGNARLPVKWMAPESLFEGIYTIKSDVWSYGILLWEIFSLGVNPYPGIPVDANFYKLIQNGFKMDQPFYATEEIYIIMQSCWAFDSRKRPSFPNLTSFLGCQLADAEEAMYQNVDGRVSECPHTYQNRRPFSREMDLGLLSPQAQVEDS
Summary of the method: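 Purified human FLT3-ITD (10 ng) with 10 μM ATP and specific substrate in 40 mM Tris-HCl pH 7.4, 20 mM MgCl2, 0.5 mg/mL BSA, 50 μM DTT, 1 h at 25 °C. ADP formation read by ADP-Glo luminescence; IC50 (nM) versus solvent-treated control.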

RS4;11 cells = assay: AML cell proliferation inhibitory activity (CellTiter-Glo); assay type: cell-based; conditions: Homo sapiens, 72 hours
Summary of the method: as §1

SMILES	GI50 (MV4-11 cells) [nM]	GI50 (MCF-7 cells) [nM]	IC50 (CDK4-cyclinD1) [nM]	IC50 (human GST-HPK1 (1-346)) [nM]	IC50 (CDK6 cyclin D1) [nM]	IC50 (human FLT3-ITD enzyme) [nM]	GI50 (RS4;11 cells) [nM]
CN1CCN(c2ccc(Nc3nc(N4OCC[C@H]4c4ccccc4)c4c(Cl)c[nH]c4n3)cc2)CC1 [Example 116, (S)-5-chloro-N-(4-(4-methylpiperazin-1-yl)phenyl)-4-(3-phenylisoxazolidin-2-yl)-7H-pyrrolo[2,3-d]pyrimidin-2-amine]	> 500	> 500	≥ 250	≥ 250	≥ 250	≥ 250	
CN1CCN(C2CCN(c3ccc(Nc4nc(N5OCC[C@H]5c5ccccc5)c5cc[nH]c5n4)cc3)CC2)CC1 [Example 84, (S)-N-(4-(4-(4-methylpiperazin-1-yl)piperidin-1-yl)phenyl)-4-(3-phenylisoxazolidin-2-yl)-7H-pyrrolo[2,3-d]pyrimidin-2-amine]	≥ 250	> 500		≥ 250		≥ 250	≥ 250
C1=NN(c2nc(Nc3cnn(C4CCNCC4)c3)nc3ccsc23)C(c2ccccc2)C1 (centres unmarked) [Example 28, 4-(5-phenyl-4,5-dihydro-1H-pyrazol-1-yl)-N-(1-(piperidin-4-yl)-1H-pyrazol-4-yl)thieno[3,2-d]pyrimidin-2-amine]	≥ 250	> 500		> 500		≥ 250	> 500
CCN1CCN(c2ccc(Nc3nc(N4OCC[C@H]4c4ccccc4)c4cc[nH]c4n3)cc2)CC1 [Example 79, (S)-N-(4-(4-ethylpiperazin-1-yl)phenyl)-4-(3-phenylisoxazolidin-2-yl)-7H-pyrrolo[2,3-d]pyrimidin-2-amine]	≥ 250	> 500		≥ 250		250 to 500	> 500
C[C@@H]1CN(Cc2cc(Nc3nc(N4N=CCC4c4ccccc4)c4sccc4n3)cc(C3CC3)c2)C[C@H](C)N1 (stereo partly drawn) [Example 12, N-(3-cyclopropyl-5-(((3R,5S)-3,5-dimethylpiperazin-1-yl)methyl)phenyl)-4-(5-phenyl-4,5-dihydro-1H-pyrazol-1-yl)thieno[3,2-d]pyrimidin-2-amine]	250 to 500	> 500		> 500		> 500	> 500
CN1CCN(c2ccc(Nc3nc(N4OCC[C@H]4c4ccccc4)c4c(C(F)(F)F)c[nH]c4n3)cc2)CC1 [Example 123, (S)-N-(4-(4-methylpiperazin-1-yl)phenyl)-4-(3-phenylisoxazolidin-2-yl)-5-(trifluoromethyl)-7H-pyrrolo[2,3-d]pyrimidin-2-amine]	> 500	> 500	≥ 250	> 500	≥ 250	≥ 250	
CN1CCN(c2ccc(Nc3nc(N4OCC[C@H]4c4ccccc4)c4c(C#N)c[nH]c4n3)cc2)CC1 [Example 118, (S)-2-((4-(4-methylpiperazin-1-yl)phenyl)amino)-4-(3-phenylisoxazolidin-2-yl)-7H-pyrrolo[2,3-d]pyrimidine-5-carbonitrile]	> 500	> 500	≥ 250	≥ 250	≥ 250	≥ 250	

Second part, the molecule after the results:

GI50 (MV4-11 cells) [nM]	GI50 (MCF-7 cells) [nM]	IC50 (CDK4-cyclinD1) [nM]	IC50 (human GST-HPK1 (1-346)) [nM]	IC50 (CDK6 cyclin D1) [nM]	IC50 (human FLT3-ITD enzyme) [nM]	GI50 (RS4;11 cells) [nM]	SMILES
≥ 250	> 500		> 500		250 to 500	> 500	CN(C)[C@@H]1CCN(c2ccc(Nc3nc(N4N=CCC4c4ccccc4)c4sccc4n3)cc2)C1 (stereo partly drawn) [Example 43, N-(4-((R)-3-(dimethylamino)pyrrolidin-1-yl)phenyl)-4-(5-phenyl-4,5-dihydro-1H-pyrazol-1-yl)thieno[3,2-d]pyrimidin-2-amine]
> 500	> 500		> 500		> 500	> 500	CN1CCN(c2ccc(Nc3nc(N4N=CCC4c4cccnc4)c4sccc4n3)cc2)CC1 (centres unmarked) [Example 34, N-(4-(4-methylpiperazin-1-yl)phenyl)-4-(5-(pyridin-3-yl)-4,5-dihydro-1H-pyrazol-1-yl)thieno[3,2-d]pyrimidin-2-amine]
250 to 500	> 500		> 500		≥ 250	> 500	CN1CCN(C2CCN(c3ccc(Nc4nc(N5N=CCC5c5ccccc5)c5sccc5n4)cc3)CC2)CC1 (centres unmarked) [Example 7, N-(4-(4-(4-methylpiperazin-1-yl)piperidin-1-yl)phenyl)-4-(5-phenyl-4,5-dihydro-1H-pyrazol-1-yl)thieno[3,2-d]pyrimidin-2-amine]
250 to 500	> 500		> 500		> 500	> 500	CN1CCN(c2ccc(Nc3nc(N4N=CCC4c4ccncc4)c4sccc4n3)cc2)CC1 (centres unmarked) [Example 35, N-(4-(4-methylpiperazin-1-yl)phenyl)-4-(5-(pyridin-4-yl)-4,5-dihydro-1H-pyrazol-1-yl)thieno[3,2-d]pyrimidin-2-amine]
> 500	> 500		> 500		> 500	> 500	CN1CCN(C(=O)c2ccc(Nc3nc(N4N=CCC4c4ccccc4)c4sccc4n3)cc2)CC1 (centres unmarked) [Example 11, (4-methylpiperazin-1-yl)(4-((4-(5-phenyl-4,5-dihydro-1H-pyrazol-1-yl)thieno[3,2-d]pyrimidin-2-yl)amino)phenyl)methanone]
250 to 500	> 500		> 500		> 500	> 500	CN1Cc2cc(Nc3nc(N4N=CCC4c4ccccc4)c4sccc4n3)ccc2C1=O (centres unmarked) [Example 25, 2-methyl-5-((4-(5-phenyl-4,5-dihydro-1H-pyrazol-1-yl)thieno[3,2-d]pyrimidin-2-yl)amino)isoindolin-1-one]
